# Target: BRD4 (Homo sapiens, UniProt O60885)
# Test: Time Resolved Fluorescence Resonance Energy Transfer (TR-FRET) binding assay
# Details: one of the FRET assays described (BRD4 construct not given)
row,SMILES,IC50
1,"Cc1noc(C)c1-c1cc(C(N)=O)c2c(c1)c1ccc(C(=O)N3C[C@@H](C)O[C@@H](C)C3)cc1n2S(=O)(=O)C1CC1 [Example 88, 9-(cyclopropylsulfonyl)-3-(3,5-dimethyl-4-isoxazolyl)-7-((cis-2,6-dimethyl-4-morpholinyl)carbonyl)-9H-carbazole-1-carboxamide]",< 50 nM
2,"Cc1noc(C)c1-c1cc(-c2nc[nH]n2)c2c(c1)c1ccc(C(=O)N3CCOCC3)cc1n2CC1CC1 [Example 70, 9-(cyclopropylmethyl)-3-(3,5-dimethyl-4-isoxazolyl)-7-(4-morpholinylcarbonyl)-1-(1H-1,2,4-triazol-3-yl)-9H-carbazole]",< 5000 nM
3,"Cc1noc(C)c1-c1cc(C(N)=O)c2c(c1)c1cc(C(=O)N3CCOCC3)ccc1n2S(=O)(=O)C1CC1 [Example 87, 9-(cyclopropylsulfonyl)-3-(3,5-dimethyl-4-isoxazolyl)-6-(4-morpholinylcarbonyl)-9H-carbazole-1-carboxamide]",< 50 nM
4,"Cc1noc(C)c1-c1cc(C(N)=O)c2c(c1)c1ccc(C(C)(C)O)cc1n2S(=O)(=O)C1CC1 [Example 55, 9-(cyclopropylsulfonyl)-3-(3,5-dimethyl-4-isoxazolyl)-7-(1-hydroxy-1-methylethyl)-9H-carbazole-1-carboxamide]",< 50 nM
5,"Cc1noc(C)c1-c1cc(C(N)=O)c2c(c1)c1ccc(C(=O)N3CC(F)(F)C3)cc1n2S(=O)(=O)C1CC1 [Example 24, 9-(cyclopropylsulfonyl)-7-((3,3-difluoro-1-azetidinyl)carbonyl)-3-(3,5-dimethyl-4-isoxazolyl)-9H-carbazole-1-carboxamide]",< 50 nM
6,Cc1csc(-c2cc(-c3c(C)noc3C)cc3c2[nH]c2cc(C(=O)N4CCOCC4)ccc23)n1 [Example 65],< 5000 nM
7,"CCOC(=O)Nc1ccc2c3cc(-c4c(C)noc4C)cc(C(N)=O)c3n(CC3CC3)c2c1 [Example 32, Ethyl(8-carbamoyl-9-(cyclopropylmethyl)-6-(3,5-dimethyl-4-isoxazolyl)-9H-carbazol-2-yl)carbamate]",< 5000 nM
8,"Cc1noc(C)c1-c1cc(C(N)=O)c2c(c1)c1ccc(C(=O)N3CCC(F)(F)CC3)cc1n2S(C)(=O)=O [Example 9, 7-((4,4-difluoro-1-piperidinyl)carbonyl)-3-(3,5-dimethyl-4-isoxazolyl)-9-(methylsulfonyl)-9H-carbazole-1-carboxamide]",< 50 nM
9,"Cc1noc(C)c1-c1cc(C(N)=O)c2c(c1)c1ccc(-c3ccncc3)cc1n2CC1CC1 [Example 36, 9-(cyclopropylmethyl)-3-(3,5-dimethyl-4-isoxazolyl)-7-(4-pyridinyl)-9H-carbazole-1-carboxamide]",< 500 nM
10,"Cc1noc(C)c1-c1cc(C(N)=O)c2c(c1)c1ccc(CN3CCOCC3)cc1n2CC1CC1 [Example 51, 9-(cyclopropylmethyl)-3-(3,5-dimethyl-4-isoxazolyl)-7-(4-morpholinylmethyl)-9H-carbazole-1-carboxamide]",< 500 nM
11,"Cc1noc(C)c1-c1cc(C(N)=O)c2c(c1)c1ccc(C(=O)N3CCOCC3)cc1n2CC1CC1 [Example 4, 9-(cyclopropylmethyl)-3-(3,5-dimethyl-4-isoxazolyl)-7-(4-morpholinylcarbonyl)-9H-carbazole-1-carboxamide]",< 50 nM
12,"Cc1noc(C)c1-c1cc(C(N)=O)c2c(c1)c1ccc(C(=O)N3CNC(=O)C3)cc1n2S(C)(=O)=O [Example 19, 3-(3,5-dimethyl-4-isoxazolyl)-9-(methylsulfonyl)-7-((4-oxo-1-imidazolidinyl)carbonyl)-9H-carbazole-1-carboxamide]",< 500 nM
13,"Cc1nnn(C)c1-c1cc(C(N)=O)c2c(c1)c1ccc(C(=O)N3C[C@@H](C)O[C@@H](C)C3)cc1n2CC1CC1 [Example 84, 9-(cyclopropylmethyl)-7-((cis-2,6-dimethyl-4-morpholinyl)carbonyl)-3-(1,4-dimethyl-1H-1,2,3-triazol-5-yl)-9H-carbazole-1-carboxamide]",< 500 nM
